According to ChEMBL document CHEMBL1201862, “PubChem BioAssay data set” (2004):
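Compound exposure: 48 hours, 5 concentrations, 96-well plates. GI50 is the concentration that inhibits growth by half.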 Activity calls are given as the source filed them. Rule as the data show it: active = GI50 up to about 1.1 µM and inactive = higher.

Key:
Assay in all cases: NCI tumour cell line growth inhibition, 48 h
[1] = test system: CCRF-CEM
[2] = test system: COLO 205
[3] = test system: IGROV-1
[4] = test system: KM12
[5] = test system: M14
[6] = test system: M19-MEL
[7] = test system: MOLT-4
[8] = test system: NCI-H226
[9] = test system: OVCAR-5
[10] = test system: SF-268
[11] = test system: SF-539
[12] = test system: SK-MEL-2
[13] = test system: SNB-75
[14] = test system: SW-620
[15] = test system: TK-10
[16] = test system: U-251
[17] = test system: UACC-257
[18] = test system: SNB-78
[19] = test system: MDA-MB-231
[20] = test system: NCI/ADR-RES

Measured: GI50

Cc1ccc(C(=O)/C=C2\Nc3c(c(=O)oc4ccccc34)N=C2NC23CC4CC(CC(C4)C2)C3)cc1
inactive: [1] > 100 µM | [2] > 100 µM | [3] > 100 µM | [4] > 100 µM | [5] > 100 µM | [6] > 100 µM | [7] > 100 µM | [8] > 100 µM | [9] > 100 µM | [10] > 100 µM | [11] > 100 µM | [12] > 100 µM | [13] 28.6 µM | [14] > 100 µM | [15] > 100 µM | [16] > 100 µM | [17] > 100 µM

O=C(N[C@H]1CC2(C=C(I)C(=O)C(I)=C2)OC1=O)OCc1ccccc1
inactive: [1] 2.61 µM | [2] 14.5 µM | [4] 16 µM | [5] 17.2 µM | [8] 22.7 µM | [9] 18.9 µM | [10] 18.1 µM | [11] 17.7 µM | [13] 19.6 µM | [18] 17.4 µM | [15] 17.7 µM | [16] 17.3 µM | [17] 16.4 µM

COc1ccc(CN2C(=O)C(Cc3cc(OC)c(OC)c(C)c3OC)NC(=O)/C2=C/c2cc(OC)c(OC)c(C)c2OC)cc1 (stereo not drawn)
inactive: [1] 27 µM | [2] 22.8 µM | [3] 53.2 µM | [4] 38.8 µM | [5] 32.1 µM | [6] 19.3 µM | [7] 24.8 µM | [8] 18.7 µM | [9] 44.9 µM | [10] 51.6 µM | [11] 45.6 µM | [12] 19.3 µM | [13] 33.5 µM | [14] 33.9 µM | [15] 33.5 µM | [16] 37.2 µM | [17] 37.5 µM

Cc1cnc2nc(-c3ccc(F)cc3)cc(O)c2c1
inactive: [1] 25.6 µM | [2] 7.64 µM | [3] 29.2 µM | [4] 5.66 µM | [5] 34.6 µM | [19] > 73.1 µM | [7] 34.1 µM | [8] 27.1 µM | [20] 27.2 µM | [9] 51.4 µM | [10] 67.9 µM | [11] 26.6 µM | [12] 25.4 µM | [13] 20.1 µM | [14] 19 µM | [15] 48 µM | [16] 23.1 µM | [17] > 75.2 µM

CC1(C)[C@@H]2CC[C@@]1(C)[C@H](O)[C@@H]2SCc1ccccc1
inactive: [1] 19 µM | [2] 17.8 µM | [3] 18.7 µM | [4] 17.8 µM | [5] 15 µM | [19] 16.8 µM | [7] 16.5 µM | [8] 18.7 µM | [20] 15.8 µM | [9] 17 µM | [10] 17.3 µM | [11] 17.8 µM | [12] 18.1 µM | [13] 27.4 µM | [14] 25.5 µM | [15] 22.6 µM | [16] 17.1 µM | [17] 14 µM

COc1ccc2nc3ccc(OC)cc3c(SCCCl)c2c1
inactive: [1] 2.75 µM | [2] > 39.1 µM | [3] 5.09 µM | [4] 17.5 µM | [5] 12.3 µM | [19] 18.8 µM | [7] 2.79 µM | [8] > 48.4 µM | [20] 16.3 µM | [9] 24.8 µM | [10] 12 µM | [11] 7.21 µM | [12] 20.7 µM | [13] 13.7 µM | [14] 12.6 µM | [15] > 81.5 µM | [16] 18 µM | [17] > 46.1 µM

O=c1c2c([nH]c3cc4c(cc13)OCO4)-c1ccccc1C2
inactive: [1] 17.7 µM | [2] 17 µM | [3] 17.7 µM | [4] 18.6 µM | [5] 20.6 µM | [7] 24.7 µM | [8] 27.2 µM | [10] 36.2 µM | [11] 18.1 µM | [12] 13.5 µM | [18] 30.5 µM | [14] 35.2 µM | [15] 10.7 µM | [16] 17.2 µM

COc1cc2c[n+](C)c3c(c2cc1OC)Cc1cc2c(cc1-3)OCO2
inactive: [1] 71.4 µM | [2] > 100 µM | [3] > 100 µM | [4] > 100 µM | [5] > 100 µM | [19] > 100 µM | [7] 48.9 µM | [8] > 100 µM | [20] > 100 µM | [9] > 100 µM | [10] > 100 µM | [11] > 100 µM | [12] > 100 µM | [13] > 100 µM | [14] > 100 µM | [15] > 100 µM | [16] > 100 µM | [17] > 100 µM
